Measured values as given in patent US6475991B2, “Use of α-alkylglucosides and α-alkylglucoside esters as anti-microbial an agents” (Ulice, priority 1996, dated 2002).

Key:
Type in all cases: cell-based
[1] = test system: Aspergillus niger; assay: Preservative efficacy test (Pharmacopée Française), fungicidal effect on Aspergillus niger; details: concentration of 5%
Description: (§1) The inventors thus tested the bactericidal and/or fungicidal activity of α-alkylglucoside and α-alkylglucoside ester type compounds to determine the conditions, in particular the concentrations, under which said compounds have to be used for the desired activities to be obtained. The results of these tests were analysed in accordance with the “Pharmacopée Françcaise” which describes a methodology for monitoring the efficacy of antimicrobial preservation agents in pharmaceutical preparations and establishes minimum efficacy criteria as a function of the administration routes of a medicine. Thus specific criteria are fixed for topical patent medicines which can be considered to be close to cosmetic products in their conception. The recommended and significant criteria for bactericidal and/or fungicidal activity of a product are:
(§2) for a fungicidal effect (yeasts and moulds) (Candida albicans, Aspergillus niger):
(§3) reduction of one logarithmic unit in 14 days with respect to the initial population;
(§4) no increase in microbial growth after 14 days and up to the 28th day, when the test is stopped.
(§5) In order to facilitate visualisation of the bactericidal or fungicidal effect of the tested compounds, the results obtained were transcribed into the graphical forms of FIG. 5 which show the reduction in the number of germs in logarithmic units, over time (1 day, 7 days, 14 days, 21 days, 28 days).

[2] = test system: Staphylococcus aureus, Pseudomonas aeruginosa, Escherichia coli; assay: Preservative efficacy test (Pharmacopée Française), bactericidal effect
Description: as §1
for a bactericidal effect (Staphylococcus aureus, Pseudomonas aeruginosa, Escherichia coli):
reduction of 3 logarithmic units in 14 days with respect to the initial population;
no increase in microbial growth after 14 days and up to the 28th day, when the test is stopped;
as §5

[3] = test system: Candida albicans, Aspergillus niger; assay: Preservative efficacy test (Pharmacopée Française), fungicidal effect (yeasts and moulds); details: concentrations of 1% to 3%
Description: as §1, §2, §3, §4, §5

CCCCO[C@H]1O[C@H](CO)[C@@H](O)[C@H](O)[C@H]1O [α-BG, α-butylglucoside]
fungicidal activity on Aspergillus niger at 5% versus lower concentrations [1]: less active than at lower concentrations | compliance with bactericidal standards of the Pharmacopée Française ([2]; concentrations above 1%): corresponds to the bactericidal standards | logarithmic reduction (bactericidal effect) ([2]; concentrations above 1% (1% to 5%), after 14 days): more than 3 logarithmic units | increase in the number of strains after 14 days ([2]; concentrations above 1%, after 14 days): no subsequent increase in the number of strains | reduction in the number of germs ([2]; concentrations of less than 0.8%): small reduction in the number of germs | compliance with fungicidal standards [3]: satisfy the fungicidal standards
